For 31 molecules, IC50 results are on record in patent publication US9255090B2, “Heterocyclyl derivatives and their use as prostaglandin D2 receptor modulators” (Actelion Pharmaceuticals Ltd., priority 2012, dated 2016).

In the test the target is hCRTH2 receptor (Homo sapiens (Human), UniProt Q9Y5Y4). Nature of the test: hCRTH2 receptor membranes radioligand (3H-PGD2) displacement assay. The class given is binding. The settings on record: 3H-PGD2 radioligand displacement, HEK293-hCRTH2 membranes. On the procedure: Biological Assays: Preparation of hCRTH2 Receptor Membranes and Radioligand Displacement Assay:
First, recombinant HEK293-hCRTH2 cells were detached from culture plates into 5 ml buffer A/plate (Buffer A: 5 mM Tris, 1 mM MgCl2-6H2O pH=7.4) using a rubber policeman. Cells were then transferred into centrifugation tubes and centrifuged for 5 min at 400 g. The cell pellet was resuspended in the same buffer and tubes were frozen at −80° C. Cells were thawed and membrane fragments were generated by homogenization using a polytron homogenizer (30 seconds). The membrane fragments were then centrifuged at 3000 g for 20 minutes and resuspended in buffer C (Buffer C: 75 mM Tris, 25 mM MgCl2, 250 mM Saccharose pH 7.4). Aliquots of membrane fragments were stored at −20° C.
Binding assay was performed in a final assay volume of 250 μl. First, 25 μl of test compound, previously diluted in Binding-Buffer (Binding-Buffer: 50 mM Tris-Base, 100 mM NaCl, 1 mM EDTA, 0.1% BSA (protease free), 0.01% NaN3, 10 mM MnCl2, pH 7.0) was placed into each well. After addition of 75 μl Binding-Buffer, 50 μl of the radioligand ^3H-PGD2 (at 2.5 nM (220.000 dpm/well) from ANAWA ART0662) was added to each well. Binding assay was started by addition of 100 μl CRTH2 membrane fragments, reaching a final concentration of 20 μg/well. For non-specific binding, PGD2 was added to the reaction mixture to […] final concentration. This assay mix was incubated for 90 minutes at room temperature and then filtered through a GF/C filter 96-well plate which was pre-soaked for 3 hours in 0.5% polyethyleneimine (PEI). The filter-wells were washed three times with ice cold Binding-Buffer. Then, 40 μl of Microscint-40 (Packard) was added to each well and the retained radioactivity quantified in a Topcount (Packard).

Chain of hCRTH2 receptor (Q9Y5Y4 whole entry, the tested form may be a part): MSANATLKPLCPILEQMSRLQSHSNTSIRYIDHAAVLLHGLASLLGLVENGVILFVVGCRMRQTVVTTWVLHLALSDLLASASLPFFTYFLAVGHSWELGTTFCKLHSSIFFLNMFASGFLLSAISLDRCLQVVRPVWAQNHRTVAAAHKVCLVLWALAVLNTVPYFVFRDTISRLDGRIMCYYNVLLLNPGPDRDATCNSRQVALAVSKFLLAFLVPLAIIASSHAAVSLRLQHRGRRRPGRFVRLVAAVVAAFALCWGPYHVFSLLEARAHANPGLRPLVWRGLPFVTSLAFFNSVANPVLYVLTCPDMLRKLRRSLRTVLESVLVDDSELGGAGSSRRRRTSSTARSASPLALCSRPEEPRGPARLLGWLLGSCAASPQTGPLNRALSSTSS

Take `O=C(O)COc1ccc(Cl)c(-c2cccc3c2CN(C(=O)OCc2ccccc2)CC3)c1` [Example 181, 8-(5-Carboxymethoxy-2-chloro-phenyl)-3,4-dihydro-1H-isoquinoline-2-carboxylic acid benzyl ester]: the concentration for half-maximal inhibition (IC50) was found to be 123 nM. With `O=C(O)COc1cc(Cl)cc(-c2ccc(F)c3c2CN(C(=O)OCc2ccccc2)CC3)c1` [Example 144, 8-(3-Carboxymethoxy-5-chloro-phenyl)-5-fluoro-3,4-dihydro-1H-isoquinoline-2-carboxylic acid benzyl ester] the figure was 86.2 nM; with `CCOc1cc(CC(=O)O)ccc1-c1ccc(F)c2c1CN(C(=O)CC1CCc3ccccc31)CC2` (racemic) [Example 233], 1.1 nM. With `COc1ccc(CC(=O)O)cc1-c1ccc(F)c2c1CN(C(=O)OCCc1scnc1C)CC2` [Example 153, 8-(5-Carboxymethyl-2-methoxy-phenyl)-5-fluoro-3,4-dihydro-1H-isoquinoline-2-carboxylic acid 2-(4-methyl-thiazol-5-yl)-ethyl ester] the figure was 40.7 nM; with `Cc1ccc(-c2cc(OCC(=O)O)ccc2Cl)c2c1CCN(C(=O)OCc1ccccc1)C2` [Example 179, 8-(5-Carboxymethoxy-2-chloro-phenyl)-5-methyl-3,4-dihydro-1H-isoquinoline-2-carboxylic acid benzyl ester], 250 nM. The same measure for `CCOc1cc(CC(=O)O)ccc1-c1ccc(F)c2c1CN(C(=O)NCc1ccccn1)CC2` [Example 448, (3-Ethoxy-4-{5-fluoro-2-[(pyridin-2-ylmethyl)-carbamoyl]-1,2,3,4-tetrahydro-isoquinolin-8-yl}-phenyl)-acetic acid]: 9.2 nM. For the molecule `COc1ccc(CC(=O)O)cc1-c1ccc(F)c2c1CN(C(=O)/C=C/c1sc(C)nc1C)CC2` [Example 87, (3-{2-[(E)-3-(2,4-Dimethyl-thiazol-5-yl)-acryloyl]-5-fluoro-1,2,3,4-tetrahydro-isoquinolin-8-yl}-4-methoxy-phenyl)-acetic acid], the half-maximal inhibitory concentration (IC50) is 93.8 nM. The same measure for `COc1ccc(CC(=O)O)cc1-c1ccc(F)c2c1CN(C(=O)CC1CCCCC1)CC2` [Example 127, {3-[2-(2-Cyclohexyl-acetyl)-5-fluoro-1,2,3,4-tetrahydro-isoquinolin-8-yl]-4-methoxy-phenyl}-acetic acid]: 176 nM. With `CCOc1ccc(CC(=O)O)cc1-c1ccc(F)c2c1CN(C(=O)[C@@H]1C[C@H]1c1ccccc1)CC2` [Example 220, {4-Ethoxy-3-[5-fluoro-2-((1R,2R)-2-phenyl-cyclopropanecarbonyl)-1,2,3,4-tetrahydro-isoquinolin-8-yl]-phenyl}-acetic acid] the figure was 13.5 nM; with `O=C(O)Cc1ccccc1-c1ccc(F)c2c1CN(C(=O)OCc1ccccc1)CC2` [Example 30, 8-(2-Carboxymethyl-phenyl)-5-fluoro-3,4-dihydro-1H-isoquinoline-2-carboxylic acid benzyl ester], 875 nM. Take `CCCNC(=O)N1CCc2c(F)ccc(-c3ccc(CC(=O)O)cc3OCC)c2C1` [Example 447, [3-Ethoxy-4-(5-fluoro-2-propylcarbamoyl-1,2,3,4-tetrahydro-isoquinolin-8-yl)-phenyl]-acetic acid]: the IC50 was found to be 78.2 nM.

Regarding `COc1ccc(CC(=O)O)cc1-c1ccc(F)c2c1CN(C(=O)C(C)Cc1cccnc1)CC2` (racemic) [Example 343], the 50% inhibitory concentration (IC50) is 291 nM. The same measure for `CCOc1ccc(CC(=O)O)cc1-c1ccc(F)c2c1CN(C(=O)CC1CC(C)(C)Oc3ncccc31)CC2` (racemic) [Example 284]: 2.4 nM; for `COc1ccc(CC(=O)O)cc1-c1ccc(F)c2c1CN(C(=O)Cc1cn(C)c3ccccc13)CC2` [Example 119, (3-{5-Fluoro-2-[2-(1-methyl-1H-indol-3-yl)-acetyl]-1,2,3,4-tetrahydro-isoquinolin-8-yl}-4-methoxy-phenyl)-acetic acid]: 69.5 nM; for `COc1ccc(CC(=O)O)cc1-c1ccc(F)c2c1CN(C(=O)C1CC1)CC2` [Example 52, [3-(2-Cyclopropanecarbonyl-5-fluoro-1,2,3,4-tetrahydro-isoquinolin-8-yl)-4-methoxy-phenyl]-acetic acid]: 68.9 nM. With `CCOc1cc(CC(=O)O)ccc1-c1ccc(F)c2c1CN(C(=O)OCc1ccnn1C)CC2` [Example 388, 8-(4-Carboxymethyl-2-ethoxy-phenyl)-5-fluoro-3,4-dihydro-1H-isoquinoline-2-carboxylic acid 2-methyl-2H-pyrazol-3-ylmethyl ester] the figure was 3.8 nM; with `COc1ccc(CC(=O)O)cc1-c1ccc(F)c2c1CN(C(=O)C1C(C)(C)C1(C)C)CC2` [Example 50, {3-[5-Fluoro-2-(2,2,3,3-tetramethyl-cyclopropanecarbonyl)-1,2,3,4-tetrahydro-isoquinolin-8-yl]-4-methoxy-phenyl}-acetic acid], 267 nM. With `COc1ccc(CC(=O)O)cc1-c1ccc(F)c2c1CN(C(=O)NCc1ccccc1)CC2` [Example 136, [3-(2-Benzylcarbamoyl-5-fluoro-1,2,3,4-tetrahydro-isoquinolin-8-yl)-4-methoxy-phenyl]-acetic acid] the figure was 30.6 nM. Regarding `COc1ccc(CC(=O)O)cc1-c1ccc(F)c2c1CN(C(=O)CC(C)C1CC1)CC2` (racemic) [Example 245], the 50% inhibitory concentration (IC50) worked out at 399 nM. The same measure for `CC(C)Oc1cc(CC(=O)O)ccc1-c1ccc(F)c2c1CN(C(=O)CC(C)(C)c1ccccc1)CC2` [Example 354, {4-[5-Fluoro-2-(3-methyl-3-phenyl-butyryl)-1,2,3,4-tetrahydro-isoquinolin-8-yl]-3-isopropoxy-phenyl}-acetic acid]: 4.2 nM. With `O=C(O)Cc1ccc(F)c(-c2cccc3c2CN(C(=O)OCc2ccccc2)CC3)c1` [Example 23, 8-(5-Carboxymethyl-2-fluoro-phenyl)-3,4-dihydro-1H-isoquinoline-2-carboxylic acid benzyl ester] the figure was 192 nM; with `COc1ccc(CC(=O)O)cc1-c1cccc2c1CN(C(=O)OCc1ccccc1)CC2` [Example 170, 8-(5-Carboxymethyl-2-methoxy-phenyl)-3,4-dihydro-1H-isoquinoline-2-carboxylic acid benzyl ester], 110 nM; with `Cc1ccc(CC(=O)O)cc1-c1ccc(F)c2c1CN(C(=O)OCc1ccccc1)CC2` [Example 7, 8-(5-Carboxymethyl-2-methyl-phenyl)-5-fluoro-3,4-dihydro-1H-isoquinoline-2-carboxylic acid benzyl ester], 25.6 nM. For the molecule `COc1ccc(CC(=O)O)cc1-c1ccc(C(F)(F)F)c2c1CN(C(=O)OCc1ccccc1)CC2` [Example 158, 8-(5-Carboxymethyl-2-methoxy-phenyl)-5-trifluoromethyl-3,4-dihydro-1H-isoquinoline-2-carboxylic acid benzyl ester], the 50% inhibitory concentration (IC50) is 67.8 nM. The same measure for `COc1ccc(CC(=O)O)cc1-c1c(F)ccc2c1CN(C(=O)[C@@H]1C[C@H]1c1ccccc1)CC2` [Example 35, {3-[7-Fluoro-2-((1R,2R)-2-phenyl-cyclopropanecarbonyl)-1,2,3,4-tetrahydro-isoquinolin-8-yl]-4-methoxy-phenyl}-acetic acid]: 3.19 nM; for `COc1cc(OCC(=O)O)ccc1-c1ccc(F)c2c1CN(C(=O)OCc1ccccc1)CC2` [Example 424, 8-(4-Carboxymethoxy-2-methoxy-phenyl)-5-fluoro-3,4-dihydro-1H-isoquinoline-2-carboxylic acid benzyl ester]: 444 nM.

In turn, `CS(=O)(=O)c1ccc(CC(=O)O)cc1-c1ccc(F)c2c1CN(C(=O)OCc1ccccc1)CC2` [Example 20, 8-(5-Carboxymethyl-2-methanesulfonyl-phenyl)-5-fluoro-3,4-dihydro-1H-isoquinoline-2-carboxylic acid benzyl ester] had an IC50 of 16.3 nM. With `CCOc1cc(CC(=O)O)ccc1-c1ccc(F)c2c1CN(C(=O)CC1COc3ccccc3C1)CC2` (racemic) [Example 324] the figure was 0.9 nM; with `O=C(O)Cc1ccc(-c2ccc(F)c3c2CN(C(=O)OCc2ccccc2)CC3)cc1Cl` [Example 40, 8-(4-Carboxymethyl-3-chloro-phenyl)-5-fluoro-3,4-dihydro-1H-isoquinoline-2-carboxylic acid benzyl ester], 29.1 nM.

In turn, `CCOc1cc(CC(=O)O)ccc1-c1ccc(F)c2c1CN(C(=O)CC1CCOc3cc(F)ccc31)CC2` (racemic) [Example 327] displayed an IC50 of 0.2 nM. Consider `O=C(O)COc1ccc(Cl)cc1-c1ccc(F)c2c1CN(C(=O)OCc1ccccc1)CC2` [Example 145, 8-(2-Carboxymethoxy-5-chloro-phenyl)-5-fluoro-3,4-dihydro-1H-isoquinoline-2-carboxylic acid benzyl ester], for which the half-inhibitory concentration (IC50) turned out to be 430 nM.
